Results as given in ChEMBL document CHEMBL1152667, “Synthesis and radiopharmacological investigation of 3-[4'-[(18)F]fluorobenzylidene]indolin-2-one as possible tyrosine kinase inhibitor” (Bioorg Med Chem, 2009).

Columns and labels:
[1] = Biodistribution in Wistar rat adipose tissue assessed as standard uptake value at 1.7 MBq, iv administered as single dose measured after 30 mins post-injection by gamma counting; type: ADME, organism-based; details: in vivo, 0.5 h
Lung [2] = assay: Biodistribution in Wistar rat lung assessed as standard uptake value at 1.7 MBq, iv administered as single dose measured after 60 mins post-injection by gamma counting; type: ADME, organism-based; details: in vivo, 1 h
[3] = Biodistribution in Wistar rat hair/skin assessed as standard uptake value at 1.7 MBq, iv administered as single dose measured after 10 mins post-injection by gamma counting; type: ADME, organism-based; details: in vivo
Harderian gland [4] = assay: Biodistribution in Wistar rat harderian gland at 1.7 MBq, iv administered as single dose measured after 1 min post-injection by gamma counting; type: ADME, organism-based; details: in vivo
Adrenal gland [5] = assay: Biodistribution in Wistar rat adrenal gland assessed as standard uptake value at 1.7 MBq, iv administered as single dose measured after 5 mins post-injection by gamma counting; type: ADME, organism-based; details: in vivo
[6] = Metabolic stability in Wistar rat blood assessed as compound remaining at 30 MBq, iv after 5 mins by radio-HPLC analysis; type: ADME, organism-based; details: read-out: Stability
Lung [7] = assay: Biodistribution in Wistar rat lung at 1.7 MBq, iv administered as single dose measured after 30 mins post-injection by gamma counting; type: ADME, organism-based; details: in vivo, 0.5 h
Heart [8] = assay: Biodistribution in Wistar rat heart at 1.7 MBq, iv administered as single dose measured after 1 min post-injection by gamma counting; type: ADME, organism-based; details: in vivo
Adrenal gland [9] = assay: Biodistribution in Wistar rat adrenal gland at 1.7 MBq, iv administered as single dose measured after 30 mins post-injection by gamma counting; type: ADME, organism-based; details: in vivo, 0.5 h
Heart [10] = assay: Biodistribution in Wistar rat heart at 1.7 MBq, iv administered as single dose measured after 60 mins post-injection by gamma counting; type: ADME, organism-based; details: in vivo, 1 h
Spleen [11] = assay: Biodistribution in Wistar rat spleen assessed as standard uptake value at 1.7 MBq, iv administered as single dose measured after 30 mins post-injection by gamma counting; type: ADME, organism-based; details: in vivo, 0.5 h
Femur [12] = assay: Biodistribution in Wistar rat femur assessed as standard uptake value at 1.7 MBq, iv administered as single dose measured after 10 mins post-injection by gamma counting; type: ADME, organism-based; details: in vivo
Spleen [13] = assay: Biodistribution in Wistar rat spleen assessed as standard uptake value at 1.7 MBq, iv administered as single dose measured after 1 min post-injection by gamma counting; type: ADME, organism-based; details: in vivo
[14] = Ratio of drug level in liver to blood in Wistar rat at 1.7 MBq, iv administered as single dose measured after 5 mins post-injection; type: ADME, organism-based
[15] = Biodistribution in Wistar rat brown adipose tissue assessed as standard uptake value at 1.7 MBq, iv administered as single dose measured after 30 mins post-injection by gamma counting; type: ADME, organism-based; details: in vivo, 0.5 h
Testes = assay: Biodistribution in Wistar rat testes assessed as standard uptake value at 1.7 MBq, iv administered as single dose measured after 60 mins post-injection by gamma counting; type: ADME, organism-based, Testis; details: in vivo, 1 h
[16] = Biodistribution in Wistar rat adipose tissue assessed as standard uptake value at 1.7 MBq, iv administered as single dose measured after 1 min post-injection by gamma counting; type: ADME, organism-based; details: in vivo
[17] = Biodistribution in Wistar rat urine at 1.7 MBq, iv administered as single dose measured after 5 mins post-injection by gamma counting; type: ADME, organism-based; details: in vivo
Heart [18] = assay: Biodistribution in Wistar rat heart at 1.7 MBq, iv administered as single dose measured after 30 mins post-injection by gamma counting; type: ADME, organism-based; details: in vivo, 0.5 h
Femur [19] = assay: Biodistribution in Wistar rat femur assessed as standard uptake value at 1.7 MBq, iv administered as single dose measured after 1 min post-injection by gamma counting; type: ADME, organism-based; details: in vivo
Lung [20] = assay: Biodistribution in Wistar rat lung assessed as standard uptake value at 1.7 MBq, iv administered as single dose measured after 5 mins post-injection by gamma counting; type: ADME, organism-based; details: in vivo
Liver [21] = assay: Biodistribution in Wistar rat liver assessed as standard uptake value at 1.7 MBq, iv administered as single dose measured after 30 mins post-injection by gamma counting; type: ADME, organism-based; details: in vivo, 0.5 h
[22] = Biodistribution in Wistar rat adipose tissue assessed as standard uptake value at 1.7 MBq, iv administered as single dose measured after 60 mins post-injection by gamma counting; type: ADME, organism-based; details: in vivo, 1 h
Femur [23] = assay: Biodistribution in Wistar rat femur at 1.7 MBq, iv administered as single dose measured after 10 mins post-injection by gamma counting; type: ADME, organism-based; details: in vivo
[24] = Biodistribution in Wistar rat adipose tissue assessed as standard uptake value at 1.7 MBq, iv administered as single dose measured after 10 mins post-injection by gamma counting; type: ADME, organism-based; details: in vivo
[25] = Ratio of drug level in brain to blood in Wistar rat at 1.7 MBq, iv administered as single dose measured after 5 mins post-injection; type: ADME, organism-based
Kidney [26] = assay: Biodistribution in Wistar rat kidney assessed as standard uptake value at 1.7 MBq, iv administered as single dose measured after 30 mins post-injection by gamma counting; type: ADME, organism-based; details: in vivo, 0.5 h
Blood = assay: Biodistribution in Wistar rat blood assessed as standard uptake value at 1.7 MBq, iv administered as single dose measured after 60 mins post-injection by gamma counting; type: ADME, organism-based; details: in vivo, 1 h
Liver [27] = assay: Biodistribution in Wistar rat liver at 1.7 MBq, iv administered as single dose measured after 60 mins post-injection by gamma counting; type: ADME, organism-based; details: in vivo, 1 h
Harderian gland [28] = assay: Biodistribution in Wistar rat harderian gland at 1.7 MBq, iv administered as single dose measured after 10 mins post-injection by gamma counting; type: ADME, organism-based; details: in vivo
[29] = Biodistribution in Wistar rat urine at 1.7 MBq, iv administered as single dose measured after 30 mins post-injection by gamma counting; type: ADME, organism-based; details: in vivo, 0.5 h
[30] = Ratio of drug level in harderian gland to blood in Wistar rat at 1.7 MBq, iv administered as single dose measured after 60 mins post-injection; type: ADME, organism-based
Brain = assay: Biodistribution in Wistar rat brain assessed as standard uptake value at 1.7 MBq, iv administered as single dose measured after 30 mins post-injection by gamma counting; type: ADME, organism-based; details: in vivo, 0.5 h
[31] = Biodistribution in Wistar rat thyroid gland at 1.7 MBq, iv administered as single dose measured after 30 mins post-injection by gamma counting; type: ADME, organism-based; details: in vivo, 0.5 h
Harderian gland [32] = assay: Biodistribution in Wistar rat harderian gland at 1.7 MBq, iv administered as single dose measured after 30 mins post-injection by gamma counting; type: ADME, organism-based; details: in vivo, 0.5 h
Spleen [33] = assay: Biodistribution in Wistar rat spleen at 1.7 MBq, iv administered as single dose measured after 10 mins post-injection by gamma counting; type: ADME, organism-based; details: in vivo
Spleen [34] = assay: Biodistribution in Wistar rat spleen assessed as standard uptake value at 1.7 MBq, iv administered as single dose measured after 10 mins post-injection by gamma counting; type: ADME, organism-based; details: in vivo
Pancreas [35] = assay: Biodistribution in Wistar rat pancreas at 1.7 MBq, iv administered as single dose measured after 30 mins post-injection by gamma counting; type: ADME, organism-based; details: in vivo, 0.5 h
Kidney [36] = assay: Biodistribution in Wistar rat kidney at 1.7 MBq, iv administered as single dose measured after 5 mins post-injection by gamma counting; type: ADME, organism-based; details: in vivo
[37] = Biodistribution in Wistar rat hair/skin assessed as standard uptake value at 1.7 MBq, iv administered as single dose measured after 30 mins post-injection by gamma counting; type: ADME, organism-based; details: in vivo, 0.5 h
Femur [38] = assay: Biodistribution in Wistar rat femur assessed as standard uptake value at 1.7 MBq, iv administered as single dose measured after 5 mins post-injection by gamma counting; type: ADME, organism-based; details: in vivo
Pancreas [39] = assay: Biodistribution in Wistar rat pancreas assessed as standard uptake value at 1.7 MBq, iv administered as single dose measured after 30 mins post-injection by gamma counting; type: ADME, organism-based; details: in vivo, 0.5 h

SUV [1]: 1.17%
SUV (Lung [2]): 0.27%
SUV [3]: 0.74%
Drug uptake (Harderian gland [4]): 0.29 %ID
SUV (Adrenal gland [5]): 5.71%
remaining at 5 min [6]: 40%
Drug uptake (Lung [7]): 0.33 %ID
Drug uptake (Heart [8]): 1.01 %ID
Drug uptake (Adrenal gland [9]): 0.04 %ID
Drug uptake (Heart [10]): 0.08 %ID
SUV (Spleen [11]): 0.28%
SUV (Femur [12]): 0.51%
SUV (Spleen [13]): 0.98%
Kp at 5 min [14]: 6.7
SUV [15]: 0.98%
SUV (Testes): 0.19%
SUV [16]: 0.7%
Drug uptake [17]: 2.39 %ID
Drug uptake (Heart [18]): 0.18 %ID
SUV (Femur [19]): 0.89%
SUV (Lung [20]): 1.3%
SUV (Liver [21]): 1.68%
SUV [22]: 1.15%
Drug uptake (Femur [23]): 0.32 %ID
SUV [24]: 1.26%
Kp at 5 min [25]: 3
SUV (Kidney [26]): 1.69%
SUV (Blood): 0.15%
Drug uptake (Liver [27]): 5.98 %ID
Drug uptake (Harderian gland [28]): 0.25 %ID
Drug uptake [29]: 11.23 %ID
Kp at 1 h [30]: 6.8
SUV (Brain): 0.41%
Drug uptake [31]: 0.03 %ID
Drug uptake (Harderian gland [32]): 0.14 %ID
Drug uptake (Spleen [33]): 0.14 %ID
SUV (Spleen [34]): 0.52%
Drug uptake (Pancreas [35]): 0.11 %ID
Drug uptake (Kidney [36]): 2.51 %ID
SUV [37]: 0.48%
SUV (Femur [38]): 0.64%
SUV (Pancreas [39]): 0.55%
Compound: O=C1Nc2ccccc2/C1=C/c1ccc([18F])cc1
